Patent publication US5869234A, “Method of identifying compounds which modulate herpesvirus infection” (President and Fellows of Harvard College, priority 1996, dated 1999)
Ends that are not written are not given here.

Assays:
[1] = tested on: ICP4; assay: In vitro phosphorylation of purified ICP4 without added kinase; type: biochemical, HSV-1; details: 1 mM
Procedure: In vitro phosphorylation of purified ICP4 proteins with PKA or without added kinase. Approximately 20 ng of the ICP4 protein purified as described previously (Imbalzano, A. N., Shepard, A. A. and DeLuca, N. A., J. Virol., 64:2620-2631 (1990)) was added to a solution containing 10 mM Tris (pH 7.2), 10 mM MgCl2, 50 mM NaCl, 10 mM DTT and 20 μM (0.15 mCi) [γ-^32 P]ATP. The phosphorylation reaction was initiated by adding 60 U of protein kinase A type I catalytic subunit purified from bovine heart (Sigma Chem. Co., 1000 U/0.016 mg protein). Reaction mixtures were incubated at 30° C. for 30 min and stopped by addition of SDS-sample buffer. Equal portions of the reactions were analyzed by SDS-PAGE and transferred onto a nitrocellulose sheet for exposure to Kodak X-AR film and for staining with an ICP4-specific antibody. In some cases, the reaction mixtures were terminated by addition of 0.5 ml lysis buffer, and immunoprecipitation was conducted exactly as described above.
When an equivalent amount of d8-10 ICP4 protein was incubated, no labeled band was observed (Example 1; FIG. 5A, lane 3). The amount of phosphorylation in the absence of added enzyme was approximately one-tenth the level of phosphorylation in the presence of PKA. This phosphorylation in the absence of added enzyme may have resulted from an enzyme tightly bound to ICP4 or from an activity intrinsic to ICP4 itself. […]

[2] = tested on: viral DNA synthesis; details: cited from earlier work
[3] = cited from earlier work
[4] = molecular target: T1, protein kinase A type I catalytic subunit (Bos taurus, UniProt P00517); assay: In vitro phosphorylation of a synthetic peptide by PKA; type: biochemical, bovine; details: for Ratio**: ratio defined in footnote drawing 1
T1 construct: purchased Sigma Chem. Co; host or cells: bovine heart
Procedure: (§1) ii) In vitro phosphorylation of a synthetic peptide. A peptide containing a potential protein kinase A site in the serine-rich region of ICP4 (RRRRHGRWRPSASST, residues 165-179) (SEQ ID NO: 2 ) was synthesized on an Applied Biosystems model 430A automated peptide synthesizer and purified by HPLC. Amino acid analysis confirmed the authenticity of this peptide, termed ICP4tide. ICP4tide (100 μM), or Kemptide (LRRASLG, Sigma Inc.), a commercially available substrate for protein kinase A ([…]), was then incubated at 30° C. in a solution containing 24 mM MES (pH 7.0), […], 5.6 nM [^32 P]ATP (300-600 Ci/mmol). Each reaction was subsequently initiated by adding 80 U of protein kinase A type I catalytic subunit purified from bovine heart (Sigma Chem. Co., 1000U/0.016 mg protein) to a final volume of 52.5 μl. Following incubation for 4 minutes, 20 μl of the reaction was spotted onto P81 phosphocellulose strips, and phosphopeptides were quantitated after washing three times in […] of 75 mM phosphoric acid as previously described (Roskoski, R. Jr., Methods in Enzymology, 99:3-6 (1983)). For kinetic studies, the concentration of ICP4tide was varied as indicated. The ICP4tide was also phosphorylated in a manner similar to those described below for phosphorylation of purified ICP4 proteins with PKA except that synthetic peptide replaced the purified ICP4 and the ATP concentration was increased to 60 mM. Such phosphorylated peptides were resolved in a 27% SDS-polyacrylamide gel.
(§2) Accordingly, a peptide, named ICP4tide (RRRRHGRWRPSASST, residues 165-179) (SEQ ID NO: 2), corresponding to this potential site was synthesized and incubated in vitro with purified type I catalytic subunits of PKA and [γ-^32 P]ATP. Kemptide (LRRASLG) (SEQ ID NO: 5), a commercially available substrate for PKA, was used as a positive control.
(§3) To determine the Km values of these reactions, we incubated different concentrations of ICP4tide with [Y-^32 P]ATP and a fixed amount of PKA catalytic subunits (80 U each) for 4 min at 30° C. Varying amounts of ICP4tide were incubated with […] of PKA and 60 μM ATP, and the incorporation of ^32 P into ICP4tide was determined. From the Lineweaver-Burk representation of the data, the Km was determined as described (Michael, N., Spector, D., Mavromara-Nazos, P., Kristie, T. M. and Roizman, B., Science, 239:1531-1534 (1988)). […] Thus, the synthetic ICP4tide could be considered to be a good substrate for PKA in vitro.

[5] = tested on: CC(C)C[C@H](NC(=O)[C@H](CO)NC(=O)[C@H](C)NC(=O)[C@H](CCCNC(=N)N)NC(=O)[C@H](CCCNC(=N)N)NC(=O)[C@@H](N)CC(C)C)C(=O)NCC(=O)O; assay: as above; type: biochemical, bovine; details: other: Lineweaver-Burk, PKA catalytic subunits, 4 min at 30° C., 60 μM ATP, pH 7.0
Procedure: as §1, §2, §3

Row | Molecule | effect on viral DNA synthesis [2] | Phosphorylation (cpm) ([4]; +PKA) | γ^32 P incorporated (%) ([4]; +PKA) | Ratio** ([4]; +PKA) | Phosphorylation (cpm) ([4]; -PKA) | γ^32 P incorporated (%) ([4]; -PKA) | also measured
1 | [Mn+2] [Mn^+2] |  |  |  |  |  |  | effect on phosphorylation of ICP4 in the absence of added kinase [1]: inhibited
2 | Nc1nc2c(ncn2COCCO)c(=O)[nH]1 [acyclovir] | inhibits viral DNA synthesis |  |  |  |  |  | 
3 | Nc1ncnc2c1ncn2[C@@H]1O[C@H](CO)[C@@H](O)[C@@H]1O [vidarabine] | inhibits viral DNA synthesis |  |  |  |  |  | properties in some experimental models [3]: teratogenic, mutagenic and carcinogenic properties
4 | LRRASLG [Kemptide, LRRASLG] |  | 768687 | 26.1 | 88.5 | 8682 | 0.3 | 
5 | RRRRHGRWRPSASST [ICP4tide] |  | 182104 | 6.2 | 26.2 | 6946 | 0.24 | Km ([4]; Lineweaver-Burk, PKA catalytic subunits, 4 min at 30° C., 60 μM ATP): 39 µM; phosphorylation by PKA, in words ([4]; compared with Kemptide): strongly phosphorylated
6 | protein kinase A type I catalytic subunit (Bos taurus) |  |  |  |  |  |  | Km [5]: 9 µM
